Source: patent US20100197797A1 (priority 2009, published 2010)
Like-named read-outs stand apart in the source and are kept apart here.

Key:
[1] = Urinary excretion after oral 14C-milnacipran hydrochloride; type: in vivo, human
Excerpt: Milnacipran and its metabolites are eliminated primarily by renal excretion. […] The l-milnacipran carbamoyl-O-glucuronide was the major metabolite excreted in urine and accounted for approximately 17% of the dose; approximately 2% of the dose was excreted in urine as d-milnacipran carbamoyl-O-glucuronide.

[2] = design: species or system human; settings: in vivo, po
Excerpt: AUC0-∞ and T½ were similar in healthy subjects and subjects with mild and moderate hepatic impairment. […] Caution should be exercised in patients with severe hepatic impairment.

clinical = settings: in vivo
Description: The pharmacokinetic parameters described herein include area under the plasma concentration-time curve (AUC0-t and AUC0-∞), maximum plasma concentration (Cmax), time of maximum plasma concentration (Tmax) and terminal elimination half-life (T1/2). The time of maximum concentration, Tmax, is determined as the time corresponding to Cmax. Area under the plasma concentration-time curve up to the time corresponding to the last measurable concentration (AUC0-t) is calculated by numerical integration using the linear trapezoidal rule as follows: […]

[3] = target: human monoamine oxidase MAO-B (Homo sapiens, UniProt P27338); assay: Enzyme inhibition; type: biochemical
uptake of dopamine [4] = target: T1, uptake of dopamine (Homo sapiens, UniProt Q01959); assay: Dopamine uptake; type: biochemical; settings: preclinical studies
[5] = tested on: bacterial reverse mutation; assay: In vitro bacterial reverse mutation assay (Ames test); type: cell-based
uptake of dopamine [6] = target: T1, uptake of dopamine; settings: cited from earlier work
[7] = target: human monoamine oxidase MAO-A (Homo sapiens, UniProt P21397); assay: Enzyme inhibition; type: biochemical
α-adrenergic receptors = assay: Receptor affinity in vitro; type: binding
rats [8] = assay: Oral administration to rats during late gestation; type: in vivo
Description: The no-effect dose for maternal and offspring toxicity was 2.5 mg/kg/day (approximately 0.1 times the MRHD on a mg/m^2 basis).

[9] = tested on: muscarinic (M1-5) receptors; assay: Receptor affinity in vitro; type: binding
opiate receptors = assay: Receptor affinity in vitro; type: binding
rats [10] = assay: Reproductive toxicity in rats (dead fetuses in utero); type: in vivo, rat; settings: 5 mg/kg/day (0.25 times the MRHD on a mg/m^2 basis)
rats [11] = settings: rat, in vivo, 50 mg/kg/day
patients = assay: Spontaneous / postmarketing reports; type: in vivo, human; settings: in vivo
Excerpt: However, because these adverse reactions were reported voluntarily from a population of uncertain size, it is not always possible to reliably estimate their frequency or establish a causal relationship to drug exposure.

human lymphocytes = type: cell-based
[12] = Drug interaction studies in healthy adult subjects; type: in vivo, human; settings: human, in vivo
Description: The drug interaction studies described below were conducted in healthy adult subjects.

K^+ channels = assay: Ion channel affinity; type: binding
benzodiazepine receptors = assay: Receptor affinity in vitro; type: binding
[13] = in vivo
Excerpt: Milnacipran is not a controlled substance.
These withdrawal symptoms can be severe. Thus, in certain embodiments, milnacipran hydrochloride should be tapered and not abruptly discontinued after extended use.

rabbits = assay: Embryotoxicity/teratogenicity in rabbits, period of organogenesis; type: in vivo, rabbit; settings: up to 60 mg/kg/day (6 times the MRHD)
Cl^− channels = assay: Ion channel affinity; type: binding
rat = settings: in vivo
[14] = tested on: dopamine (D1-5) receptors; assay: Receptor affinity in vitro; type: binding
rats [15] = settings: rat, in vivo, 15 mg/kg
Excerpt: (§1) The clinical significance of the finding is not known.

primate = settings: in vivo
Excerpt: as §1

fibromyalgia patients = assay: Placebo-controlled trials in fibromyalgia patients (safety); type: in vivo, human; settings: human, in vivo
Excerpt: The stated frequencies of adverse reactions represent the proportion of individuals who experienced, at least once, a treatment-emergent adverse reaction of the type listed. A reaction was considered treatment emergent if it occurred for the first time or worsened while receiving therapy following baseline evaluation.

acetylcholinesterase = acetylcholinesterase (Homo sapiens, UniProt P22303); assay: Enzyme inhibition; type: biochemical
[16] = tested on: L5178Y TK+/− mouse lymphoma; type: cell-based
[17] = target: neuronal serotonin reuptake (Homo sapiens, UniProt P31645); assay: Serotonin uptake inhibition in vitro; type: biochemical; settings: preclinical studies
β-adrenergic receptors = assay: Receptor affinity in vitro; type: binding
[18] = tested on: γ-aminobutyric acid (GABA) receptors; assay: Receptor affinity in vitro; type: binding
[19] = tested on: serotonergic (5-HT1-7) receptors; assay: Receptor affinity in vitro; type: binding
Ca^++ channels = assay: Ion channel affinity; type: binding
mice = assay: Embryotoxicity/teratogenicity in mice, period of organogenesis; type: in vivo, mouse; settings: up to 125 mg/kg/day (3 times the MRHD)
Na^+ channels = assay: Ion channel affinity; type: binding
[20] = human, in vivo
Excerpt: Dosage adjustment based on gender is not necessary.

mouse = settings: in vivo
[21] = tested on: histamine (H1-4) receptors; assay: Receptor affinity in vitro; type: binding
[22] = oral 14C-milnacipran hydrochloride

T1 sequence (Q01959 whole entry): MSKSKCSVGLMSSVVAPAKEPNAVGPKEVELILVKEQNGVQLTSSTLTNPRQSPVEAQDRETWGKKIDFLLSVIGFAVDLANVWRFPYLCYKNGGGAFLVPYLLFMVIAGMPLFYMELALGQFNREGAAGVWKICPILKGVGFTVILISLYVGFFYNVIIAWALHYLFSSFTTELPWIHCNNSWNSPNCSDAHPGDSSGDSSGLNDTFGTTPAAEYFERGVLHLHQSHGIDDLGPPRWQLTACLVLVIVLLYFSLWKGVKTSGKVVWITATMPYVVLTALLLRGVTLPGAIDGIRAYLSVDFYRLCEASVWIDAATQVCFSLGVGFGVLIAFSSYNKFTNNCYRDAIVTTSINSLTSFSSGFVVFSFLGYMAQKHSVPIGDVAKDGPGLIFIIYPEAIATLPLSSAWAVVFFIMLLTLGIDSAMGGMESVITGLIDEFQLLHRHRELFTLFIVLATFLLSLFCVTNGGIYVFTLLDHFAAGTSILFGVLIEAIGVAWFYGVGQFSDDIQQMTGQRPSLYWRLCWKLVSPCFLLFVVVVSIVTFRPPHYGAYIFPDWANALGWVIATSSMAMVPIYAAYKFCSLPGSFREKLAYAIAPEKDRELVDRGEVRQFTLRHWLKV
human monoamine oxidase MAO-B, sequence (P27338 whole entry): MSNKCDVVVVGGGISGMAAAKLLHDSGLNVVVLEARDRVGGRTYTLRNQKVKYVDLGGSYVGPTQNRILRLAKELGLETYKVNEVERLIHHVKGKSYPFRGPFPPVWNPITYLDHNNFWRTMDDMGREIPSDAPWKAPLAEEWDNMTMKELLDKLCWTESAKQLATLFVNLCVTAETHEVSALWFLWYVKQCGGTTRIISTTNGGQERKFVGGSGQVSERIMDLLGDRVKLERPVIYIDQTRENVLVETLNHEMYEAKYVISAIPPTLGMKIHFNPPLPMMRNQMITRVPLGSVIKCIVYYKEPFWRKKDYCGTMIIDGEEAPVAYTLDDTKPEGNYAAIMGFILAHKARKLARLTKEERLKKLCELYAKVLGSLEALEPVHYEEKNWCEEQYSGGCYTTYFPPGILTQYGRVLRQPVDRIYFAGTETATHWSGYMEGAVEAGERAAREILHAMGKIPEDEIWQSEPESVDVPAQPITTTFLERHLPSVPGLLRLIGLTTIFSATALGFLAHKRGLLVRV
human monoamine oxidase MAO-A, sequence (P21397 whole entry): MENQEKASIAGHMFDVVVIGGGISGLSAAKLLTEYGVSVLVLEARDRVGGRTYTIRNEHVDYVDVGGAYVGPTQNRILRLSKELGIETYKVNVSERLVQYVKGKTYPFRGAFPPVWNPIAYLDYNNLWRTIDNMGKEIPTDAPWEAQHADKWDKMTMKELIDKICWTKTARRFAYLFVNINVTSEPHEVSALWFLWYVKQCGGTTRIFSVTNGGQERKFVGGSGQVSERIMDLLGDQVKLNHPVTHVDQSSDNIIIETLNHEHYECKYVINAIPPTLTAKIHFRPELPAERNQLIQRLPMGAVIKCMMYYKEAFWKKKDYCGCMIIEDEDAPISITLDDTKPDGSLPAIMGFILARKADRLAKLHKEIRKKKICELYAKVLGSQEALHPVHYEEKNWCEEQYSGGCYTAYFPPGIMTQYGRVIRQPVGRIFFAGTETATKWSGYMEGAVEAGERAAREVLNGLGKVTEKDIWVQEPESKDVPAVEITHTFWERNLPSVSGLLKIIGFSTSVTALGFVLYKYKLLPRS
neuronal serotonin reuptake, sequence (P31645 whole entry): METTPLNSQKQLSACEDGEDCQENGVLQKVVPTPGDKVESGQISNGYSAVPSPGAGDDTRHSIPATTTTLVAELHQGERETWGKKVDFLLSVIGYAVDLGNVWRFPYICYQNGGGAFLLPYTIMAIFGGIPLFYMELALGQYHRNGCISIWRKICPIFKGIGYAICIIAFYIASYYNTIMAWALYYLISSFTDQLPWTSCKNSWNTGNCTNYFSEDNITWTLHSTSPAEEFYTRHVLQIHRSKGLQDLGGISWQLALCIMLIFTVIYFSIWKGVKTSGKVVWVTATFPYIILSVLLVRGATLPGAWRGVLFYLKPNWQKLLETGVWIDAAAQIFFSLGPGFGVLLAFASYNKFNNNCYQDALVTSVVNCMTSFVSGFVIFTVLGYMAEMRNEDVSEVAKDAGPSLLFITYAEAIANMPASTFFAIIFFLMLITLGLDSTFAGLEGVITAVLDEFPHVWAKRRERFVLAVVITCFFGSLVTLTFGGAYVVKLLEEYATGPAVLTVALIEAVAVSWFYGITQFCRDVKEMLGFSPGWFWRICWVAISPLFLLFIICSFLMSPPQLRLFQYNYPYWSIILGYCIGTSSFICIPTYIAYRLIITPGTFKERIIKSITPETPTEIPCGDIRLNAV
acetylcholinesterase, sequence (P22303 32-614, species assumed): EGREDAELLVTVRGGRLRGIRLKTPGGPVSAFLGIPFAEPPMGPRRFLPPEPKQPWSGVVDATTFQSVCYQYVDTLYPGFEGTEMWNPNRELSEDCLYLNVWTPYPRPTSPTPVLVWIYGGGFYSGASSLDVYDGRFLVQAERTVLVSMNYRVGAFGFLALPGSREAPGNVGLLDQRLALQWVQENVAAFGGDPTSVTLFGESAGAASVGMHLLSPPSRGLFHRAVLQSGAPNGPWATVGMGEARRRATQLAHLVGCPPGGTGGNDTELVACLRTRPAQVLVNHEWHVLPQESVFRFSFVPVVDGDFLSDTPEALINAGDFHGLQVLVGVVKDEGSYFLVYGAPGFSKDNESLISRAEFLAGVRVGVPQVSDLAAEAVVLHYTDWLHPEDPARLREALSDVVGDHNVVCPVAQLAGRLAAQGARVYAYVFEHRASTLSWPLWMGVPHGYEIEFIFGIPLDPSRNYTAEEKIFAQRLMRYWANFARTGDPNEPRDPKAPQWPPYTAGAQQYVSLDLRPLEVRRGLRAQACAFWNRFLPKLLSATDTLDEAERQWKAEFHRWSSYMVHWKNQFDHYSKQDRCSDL

## CCNC(=O)[C@]1(c2ccccc2)C[C@@H]1CN [N-desethyl milnacipran]
[1]; [22]
  dose excreted in urine as this species: Approximately 8%

## CCN(CC)C(=O)[C@]1(c2ccccc2)C[C@@H]1CNC(=O)O[C@@H]1O[C@H](C(=O)O)[C@@H](O)[C@H](O)[C@H]1O [d-milnacipran carbamoyl-O-glucuronide]
[1]; [22]
  dose excreted in urine as this species: approximately 2%

## CCN(CC)C(=O)C1(c2ccccc2)CC1CN (stereo not shown) [milnacipran]
[2]; human, 50 mg
  higher AUC0-∞ than healthy subjects: 31%
  higher T½ than healthy subjects: 55%
[2]
  T½ vs healthy subjects: similar
clinical; human
  dose excreted unchanged in urine: 55%
  half-life: 6 to 8 h
  time to steady-state levels: 36 to 48 h
clinical; human, iv
  Vd: ~400 L
clinical; human, po
  bioavailability: 85 to 90%
clinical
  exposure vs dose: increased proportionally
[3]
  inhibition of activity: does not inhibit
Uptake of dopamine [4]
  effect on uptake of dopamine or other neurotransmitters: without directly affecting
[5]
  mutagenicity: not mutagenic
Uptake of dopamine [6]
  effect on uptake of dopamine: does not affect
[7]
  inhibition of activity: does not inhibit
α-adrenergic receptors
  affinity: no significant affinity
Rats [8]; rat, in vivo, po, 5 mg/kg/day
  pup body weight and viability on postpartum day 4: decrease in pup body weight and viability
Rats [8]; rats (approximately 0.1 times the MRHD)
  no-effect dose for maternal and offspring toxicity: 2.5 mg/kg/day
[9]
  affinity: no significant affinity
Opiate receptors
  affinity: no significant affinity
Rats [10]
  incidence of dead fetuses in utero: increased the incidence of dead fetuses in utero
Rats [11]
  tumor incidence: statistically significant increase in the incidence of thyroid C-cell adenomas and combined adenomas and carcinomas in males
patients
  liver findings: cases of increased liver enzymes and reports of severe liver injury, including fulminant hepatitis
Human lymphocytes
  clastogenicity: not clastogenic
[12]
  adverse events after switching from clomipramine: an increase in adverse events (e.g., euphoria and postural hypotension)
K^+ channels
  affinity: no significant affinity
Benzodiazepine receptors
  affinity: no significant affinity
[13]
  behavioral signs indicative of abuse potential: did not produce behavioral signs indicative of abuse potential
  physical dependence: produces physical dependence
rabbits
  embryotoxicity or teratogenicity: did not result in embryotoxicity or teratogenicity
Cl^− channels
  affinity: no significant affinity
rat
  keratitis of the eye: did not show this response
[14]
  affinity: no significant affinity
Rats [15]
  hepatic findings: increased incidences of centrilobular vacuolation of the liver in male rats and eosinophilic foci in male and female rats
  keratitis of the eye: increased incidence of keratitis of the eye
primate
  keratitis of the eye: did not show this response
Fibromyalgia patients
  withdrawal due to constipation: 1%
  withdrawal due to dizziness: 1%
  withdrawal due to headache: 2%
  withdrawal due to heart rate increased: 1%
  withdrawal due to hyperhidrosis: 1%
  withdrawal due to nausea: 6%
  withdrawal due to palpitations: 3%
  withdrawal due to vomiting: 1%
  withdrawal symptoms following discontinuation: Withdrawal symptoms have been observed
acetylcholinesterase
  inhibition of activity: does not inhibit
[16]
  mutagenicity: not mutagenic
[17]
  inhibition of neuronal serotonin reuptake: potent inhibitor
β-adrenergic receptors
  affinity: no significant affinity
[18]
  affinity: no significant affinity
[19]
  affinity: no significant affinity
Ca^++ channels
  affinity: no significant affinity
mice
  embryotoxicity or teratogenicity: did not result in embryotoxicity or teratogenicity
[1]; human, in vivo, po
  dose excreted in urine as this species: approximately 55%
Na^+ channels
  affinity: no significant affinity
[20]; both
  higher AUC: about 20%
  higher Cmax: about 20%
[20]
  higher AUC: about 30%
  higher Cmax: about 30%
mouse
  clastogenicity: not clastogenic
[21]
  affinity: no significant affinity

## CCN(CC)C(=O)[C@]1(c2ccccc2)C[C@@H]1CN [d-milnacipran]
[1]; [22]
  dose excreted in urine as this species: 31%

## CCN(CC)C(=O)[C@]1(c2ccccc2)C[C@@H]1CN.Cl [(1R,2S) enantiomer, (1R,2S)-2-aminomethyl-1-phenyl-N,N-diethylcyclopropanecarboxamide hydrochloride]
clinical; human
  half-life: 4 to 6 h

## CCN(CC)C(=O)[C@@]1(c2ccccc2)C[C@H]1CNC(=O)O[C@@H]1O[C@H](C(=O)O)[C@@H](O)[C@H](O)[C@H]1O [l-milnacipran carbamoyl-O-glucuronide]
[1]; [22]
  dose excreted in urine as this species: approximately 17%

## CCN(CC)C(=O)[C@@]1(c2ccccc2)C[C@H]1CN [l-milnacipran]
[1]; [22]
  dose excreted in urine as this species: 24%

## CCN(CC)C(=O)[C@@]1(c2ccccc2)C[C@H]1CN.Cl [(1S,2R) enantiomer, (1S,2R)-2-aminomethyl-1-phenyl-N,N-diethylcyclopropanecarboxamide hydrochloride]
clinical; human
  half-life: 8 to 10 h
